Source: patent US20260295053A1, “COMPOUNDS FOR DEGRADATION AND INHIBITION OF KRAS (G12D) PROTEIN” (Shenzhen Ionova Life Science Co., Ltd., priority 2023, published 2026)

Key:
[1] = tested on: AsPC-1 cells; test: AsPC-1 cell proliferation assay (CellTiter Glo); type: cell-based; conditions: 6 days
Outline: (§1)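 Half-maximal degradation (DC50) and inhibition (IC50) concentrations are fitted from dose-response curves spanning […] to 1.5 nM final. KRAS G12D loss is measured by fluorescent antibody staining with β-actin reference after 24 h; growth is measured by ATP luminescence after a 6-day exposure.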

[2] = target: T1, KRAS (G12D) (Homo sapiens, UniProt P01116, G12D); test: KRAS (G12D) cellular degradation assay in AsPC-1 cells; type: cell-based; conditions: 24 hours, antibody fluorescence (Odyssey CLX), DC50 half-maximal degradation concentration
T1 construct: in-cell western with KRAS G12D antibody after 24 h
Outline: as §1

T1 sequence (P01116 1-188 isoform P01116-2 G12D): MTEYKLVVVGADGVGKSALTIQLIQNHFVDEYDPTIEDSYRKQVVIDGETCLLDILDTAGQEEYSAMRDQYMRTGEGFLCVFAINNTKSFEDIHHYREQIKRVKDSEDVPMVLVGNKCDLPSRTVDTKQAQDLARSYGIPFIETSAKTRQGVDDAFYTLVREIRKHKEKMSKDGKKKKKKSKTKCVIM

IC50 ([1]; Homo sapiens, ASPC1, 144 h) [nM] | DC50 [2] [nM] | IC50 [1] [nM] | SMILES
< 10 | < 10 | – | CCn1nccc1-c1ccc([C@@H](NC(=O)[C@@H]2C[C@@H](O)CN2C(=O)[C@H](C(C)C)n2cc(-c3ccc(COc4c(-c5c(C)c(F)cc6[nH]ncc56)c(C5CC5)cc5c(N6C[C@@H]7C[C@H]6CN7)nc(O[C@H]6CC[C@H](OC)C6)nc45)cc3)nn2)[C@H](C)O)cc1 [Example 151, (2S,4R)-1-((2S)-2-(4-(4-(((4-((1S,4S)-2,5-diazabicyclo[2.2.1]heptan-2-yl)-6-cyclopropyl-7-(6-fluoro-5-methyl-1H-indazol-4-yl)-2-(((1S,3S)-3-methoxycyclopentyl)oxy)quinazolin-8-yl)oxy)methyl)phenyl)-1H-1,2,3-triazol-1-yl)-3-methylbutanoyl)-N-((1R,2S)-1-(4-(1-ethyl-1H-pyrazol-5-yl)phenyl)-2-hydroxypropyl)-4-hydroxypyrrolidine-2-carboxamide]
10 to 100 | 10 to 100 | – | CCn1nccc1C12CC(CNC(=O)[C@@H]3C[C@@H](O)CN3C(=O)[C@H](C(C)C)n3cc(-c4ccc(COc5c(-c6c(C)c(F)cc7[nH]ncc67)c(C6CC6)cc6c(N7C[C@@H]8C[C@H]7CN8)nc(OC[C@H](C)OC)nc56)cc4)nn3)(C1)C2 [Example 81, (2S,4R)-1-((2S)-2-(4-(4-(((4-((1S,4S)-2,5-diazabicyclo[2.2.1]heptan-2-yl)-6-cyclopropyl-7-(6-fluoro-5-methyl-1H-indazol-4-yl)-2-((S)-2-methoxypropoxy)quinazolin-8-yl)oxy)methyl)phenyl)-1H-1,2,3-triazol-1-yl)-3-methylbutanoyl)-N-((3-(1-ethyl-1H-pyrazol-5-yl)bicyclo[1.1.1]pentan-1-yl)methyl)-4-hydroxypyrrolidine-2-carboxamide]
– | > 1000 | > 1000 | CO[C@@H](C)COc1nc(N2C[C@H]3C[C@@H]2CN3)c2cc(C3CC3)c(-c3c(C)c(F)cc4[nH]ncc34)c(OCc3ccc(-c4cn([C@H](C(=O)N5C[C@H](O)C[C@H]5C(=O)N[C@@H](C)c5ccc(-c6scnc6C)cc5)C(C)C)nn4)cc3)c2n1 (single isomer, unassigned) [Example 3B]
< 10 | < 10 | – | CCn1nccc1-c1ccc([C@H](CO)NC(=O)[C@@H]2C[C@@H](O)CN2C(=O)[C@H](C(C)C)n2cc(-c3ccc(COc4c(-c5c(C)c(F)cc6[nH]ncc56)c(C5CC5)cc5c(N6CCNCC[C@H]6C)nc(OC[C@H](C)OC)nc45)cc3)nn2)cc1 [Example 154, (2S,4R)-1-((2S)-2-(4-(4-(((6-cyclopropyl-7-(6-fluoro-5-methyl-1H-indazol-4-yl)-2-((S)-2-methoxypropoxy)-4-((R)-7-methyl-1,4-diazepan-1-yl)quinazolin-8-yl)oxy)methyl)phenyl)-1H-1,2,3-triazol-1-yl)-3-methylbutanoyl)-N—((R)-1-(4-(1-ethyl-1H-pyrazol-5-yl)phenyl)-2-hydroxyethyl)-4-hydroxypyrrolidine-2-carboxamide]
< 10 | < 10 | – | Cc1ncsc1-c1ccc([C@@H](NC(=O)[C@@H]2C[C@@H](O)CN2C(=O)[C@H](C(C)C)n2cc(-c3ccc(COc4c(-c5c(C)c(F)cc6[nH]ncc56)c(C5CC5)cc5c(N6C[C@@H]7C[C@H]6CN7)nc(OC6CC7COCC7C6)nc45)cc3)nn2)[C@H](C)O)cc1 (stereo partly drawn) [Example 132, (2S,4R)-1-((2S)-2-(4-(4-(((4-((1S,4S)-2,5-diazabicyclo[2.2.1]heptan-2-yl)-6-cyclopropyl-7-(6-fluoro-5-methyl-1H-indazol-4-yl)-2-((hexahydro-1H-cyclopenta[c]furan-5-yl)oxy)quinazolin-8-yl)oxy)methyl)phenyl)-1H-1,2,3-triazol-1-yl)-3-methylbutanoyl)-4-hydroxy-N-((1R,2S)-2-hydroxy-1-(4-(4-methylthiazol-5-yl)phenyl)propyl)pyrrolidine-2-carboxamide]
< 10 | < 10 | – | CCn1nccc1-c1ccc([C@H](CO)NC(=O)[C@@H]2C[C@@H](O)CN2C(=O)[C@H](C(C)C)n2cc(-c3ccc(COc4c(-c5c(C)c(F)cc6[nH]nc(F)c56)c(C5CC5)cc5c(N6C[C@@H]7C[C@H]6CN7)nc(OC[C@H](C)OC)nc45)cc3)nn2)cc1 [Example 33, (2S,4R)-1-((2S)-2-(4-(4-(((4-((1S,4S)-2,5-diazabicyclo[2.2.1]heptan-2-yl)-6-cyclopropyl-7-(3,6-difluoro-5-methyl-1H-indazol-4-yl)-2-((S)-2-methoxypropoxy)quinazolin-8-yl)oxy)methyl)phenyl)-1H-1,2,3-triazol-1-yl)-3-methylbutanoyl)-N—((R)-1-(4-(1-ethyl-1H-pyrazol-5-yl)phenyl)-2-hydroxyethyl)-4-hydroxypyrrolidine-2-carboxamide]
< 10 | < 10 | – | CCn1nccc1-c1ccc([C@@H](NC(=O)[C@@H]2C[C@@H](O)CN2C(=O)[C@H](C(C)C)n2cc(-c3ccc(COc4c(-c5c(C)c(F)cc6[nH]ncc56)c(C5CC5)cc5c(N6CCNCC[C@H]6C)nc(OC[C@H](C)OC)nc45)cc3)nn2)[C@H](C)O)cc1 [Example 201, (2S,4R)-1-((2S)-2-(4-(4-(((6-cyclopropyl-7-(6-fluoro-5-methyl-1H-indazol-4-yl)-2-((S)-2-methoxypropoxy)-4-((R)-7-methyl-1,4-diazepan-1-yl)quinazolin-8-yl)oxy)methyl)phenyl)-1H-1,2,3-triazol-1-yl)-3-methylbutanoyl)-N-((1R,2S)-1-(4-(1-ethyl-1H-pyrazol-5-yl)phenyl)-2-hydroxypropyl)-4-hydroxypyrrolidine-2-carboxamide]
< 10 | 10 to 100 | – | COC1CCC(Oc2nc(N3C[C@@H]4C[C@H]3CN4)c3cc(C4CC4)c(-c4c(C)c(F)c(F)c5[nH]ncc45)c(OCc4ccc(-c5cn([C@H](C(=O)N6C[C@H](O)C[C@H]6C(=O)N[C@@H](CO)c6ccc(-c7scnc7C)cc6)C(C)C)nn5)cc4)c3n2)CC1 (stereo partly drawn) [Example 103, (2S,4R)-1-((2S)-2-(4-(4-(((4-((1S,4S)-2,5-diazabicyclo[2.2.1]heptan-2-yl)-6-cyclopropyl-7-(6,7-difluoro-5-methyl-1H-indazol-4-yl)-2-(((1s,4R)-4-methoxycyclohexyl)oxy)quinazolin-8-yl)oxy)methyl)phenyl)-1H-1,2,3-triazol-1-yl)-3-methylbutanoyl)-4-hydroxy-N—((R)-2-hydroxy-1-(4-(4-methylthiazol-5-yl)phenyl)ethyl)pyrrolidine-2-carboxamide]
> 1000 | > 1000 | – | CO[C@@H](C)COc1nc(N2C[C@@H]3C[C@H]2CN3)c2cc(C3CC3)c(-c3c(C)c(F)cc4[nH]ncc34)c(OCc3ccc(-c4cn([C@H](C(=O)N5C[C@H](O)C[C@H]5C(=O)N[C@H](c5ccc(S(F)(F)(F)(F)F)cc5)[C@H](C)O)C(C)C)nn4)cc3)c2n1 [Example 148, (2S,4R)-1-((2S)-2-(4-(4-(((4-((1S,4S)-2,5-diazabicyclo[2.2.1]heptan-2-yl)-6-cyclopropyl-7-(6-fluoro-5-methyl-1H-indazol-4-yl)-2-((S)-2-methoxypropoxy)quinazolin-8-yl)oxy)methyl)phenyl)-1H-1,2,3-triazol-1-yl)-3-methylbutanoyl)-4-hydroxy-N-((1R,2S)-2-hydroxy-1-(4-(pentafluoro-I6-sulfaneyl)phenyl)propyl)pyrrolidine-2-carboxamide]
10 to 100 | 10 to 100 | – | CCn1nccc1-c1ccc([C@H](CO)NC(=O)[C@@H]2C[C@@H](O)CN2C(=O)[C@H](C(C)C)n2cc(-c3ccc(COc4c(-c5c(C)c(F)cc6[nH]ncc56)c(C5CC5)cc5c(N6CCC=CCC6)nc(OC[C@H](C)OC)nc45)cc3)nn2)cc1 [Example 158, (2S,4R)-1-((2S)-2-(4-(4-(((6-cyclopropyl-7-(6-fluoro-5-methyl-1H-indazol-4-yl)-2-((S)-2-methoxypropoxy)-4-(2,3,6,7-tetrahydro-1H-azepin-1-yl)quinazolin-8-yl)oxy)methyl)phenyl)-1H-1,2,3-triazol-1-yl)-3-methylbutanoyl)-N—((R)-1-(4-(1-ethyl-1H-pyrazol-5-yl)phenyl)-2-hydroxyethyl)-4-hydroxypyrrolidine-2-carboxamide]
< 10 | 10 to 100 | – | CCc1ncccc1C#C[C@H](CO)NC(=O)[C@@H]1C[C@@H](O)CN1C(=O)[C@H](C(C)C)n1cc(-c2ccc(COc3c(-c4c(C)c(F)cc5[nH]ncc45)c(C4CC4)cc4c(N5C[C@@H]6C[C@H]5CN6)nc(OC[C@H](C)OC)nc34)cc2)nn1 [Example 46, (2S,4R)-1-((2S)-2-(4-(4-(((4-((1S,4S)-2,5-diazabicyclo[2.2.1]heptan-2-yl)-6-cyclopropyl-7-(6-fluoro-5-methyl-1H-indazol-4-yl)-2-((S)-2-methoxypropoxy)quinazolin-8-yl)oxy)methyl)phenyl)-1H-1,2,3-triazol-1-yl)-3-methylbutanoyl)-N—((R)-4-(2-ethylpyridin-3-yl)-1-hydroxybut-3-yn-2-yl)-4-hydroxypyrrolidine-2-carboxamide]

SMILES | IC50 ([1]; Homo sapiens, ASPC1, 144 h) [nM] | DC50 [2] [nM] | IC50 [1] [nM]
CCn1nccc1-c1ccc([C@@H](NC(=O)[C@@H]2C[C@@H](O)CN2C(=O)[C@H](C(C)C)n2cc(-c3ccc(COc4c(-c5c(C)c(F)cc6[nH]ncc56)c(C5CCC5)cc5c(N6C[C@@H]7C[C@H]6CN7)nc(O[C@H]6C[C@H](OC)C6)nc45)cc3)nn2)[C@H](C)O)cc1 [Example 136, (2S,4R)-1-((2S)-2-(4-(4-(((4-((1S,4S)-2,5-diazabicyclo[2.2.1]heptan-2-yl)-6-cyclobutyl-7-(6-fluoro-5-methyl-1H-indazol-4-yl)-2-((1r,3S)-3-methoxycyclobutoxy)quinazolin-8-yl)oxy)methyl)phenyl)-1H-1,2,3-triazol-1-yl)-3-methylbutanoyl)-N-((1R,2S)-1-(4-(1-ethyl-1H-pyrazol-5-yl)phenyl)-2-hydroxypropyl)-4-hydroxypyrrolidine-2-carboxamide] | < 10 | < 10 | –
